The values below come from US7858621B2 (Amorepacific Corporation, priority 2006, dated 2010).

Each structure is given as a SMILES string.

The IC50 is the point on the concentration scale where inhibition reaches its midpoint.

This assay deals with T1, vanilloid receptor (Rattus norvegicus, UniProt O35433).
T1 construct: DRG nerve cells from the primary culture of 2 days were equilibrated; endogenous in cells; host or cells: primary culture of dorsal root ganglion neurons from neonatal SD rats
T1 sequence (O35433 whole entry): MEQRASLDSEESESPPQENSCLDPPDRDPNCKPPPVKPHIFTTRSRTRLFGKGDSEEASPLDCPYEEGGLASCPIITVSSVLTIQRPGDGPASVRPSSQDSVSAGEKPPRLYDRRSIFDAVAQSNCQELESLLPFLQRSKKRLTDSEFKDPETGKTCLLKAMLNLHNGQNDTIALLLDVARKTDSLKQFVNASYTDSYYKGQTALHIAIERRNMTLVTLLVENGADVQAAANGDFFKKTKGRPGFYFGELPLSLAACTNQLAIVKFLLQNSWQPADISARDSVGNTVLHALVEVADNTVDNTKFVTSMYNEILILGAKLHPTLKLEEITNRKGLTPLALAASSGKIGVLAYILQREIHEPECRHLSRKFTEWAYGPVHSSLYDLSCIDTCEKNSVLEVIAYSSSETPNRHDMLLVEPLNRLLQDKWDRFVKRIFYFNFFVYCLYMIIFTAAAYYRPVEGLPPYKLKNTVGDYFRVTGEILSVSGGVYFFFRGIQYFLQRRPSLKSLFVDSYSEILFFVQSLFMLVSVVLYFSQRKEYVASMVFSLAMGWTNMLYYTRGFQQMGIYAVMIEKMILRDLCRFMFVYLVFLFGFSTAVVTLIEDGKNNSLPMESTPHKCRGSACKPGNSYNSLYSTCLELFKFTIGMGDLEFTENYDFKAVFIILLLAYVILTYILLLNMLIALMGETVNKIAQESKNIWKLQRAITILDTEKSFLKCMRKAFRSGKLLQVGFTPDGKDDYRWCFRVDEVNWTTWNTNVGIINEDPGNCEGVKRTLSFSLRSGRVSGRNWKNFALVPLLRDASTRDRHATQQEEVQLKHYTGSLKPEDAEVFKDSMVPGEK
Description: 45Ca influx test in cultured neonatal rat DRG neurons, inhibition of capsaicin response. In kind it is cell-based. To be noted: neonatal rat DRG neurons, capsaicin 0.5 μM, 45Ca influx; read-out: Antagonist Calcium Uptake Test (IC50). The method, boiled down:
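Neonatal SD rat DRG neurons, cultured 2 days with NGF (200 ng/ml) and Ara-C, were washed in HEPES (10 mM, pH 7.4)-buffered Ca/Mg-free HBSS. Test compound was added with capsaicin (final 0.5 μM) and 45Ca (10 μCi/ml) for 10 min at room temperature; 45Ca uptake counted by scintillation after SDS elution.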
For the compound `CC(C)Cc1nc(C(F)(F)F)ccc1/C=C/C(=O)NCc1cc(F)c(NS(C)(=O)=O)c(F)c1` [Example 226, N-(3,5-Difluoro-4-methanesulfonylamino-benzyl)-3-(2-isobutyl-6-trifluoromethyl-pyridin-3-yl)-acrylamide], the IC50 turned out to be 85 nM.

For the compound `C[C@@H](NC(=O)/C=C/c1ccc(C(F)(F)F)nc1CCc1ccccc1)c1ccc(NS(C)(=O)=O)c(F)c1` [Example 237, (R)—N-[1-(3-Fluoro-4-methanesulfonylamino-phenyl)-ethyl]-3-(2-phenethyl-6-trifluoromethyl-pyridin-3-yl)-acrylamide], the IC50 is 96 nM. With `Cc1nc(C(F)(F)F)ccc1/C=C/C(=O)NCc1ccc(NS(C)(=O)=O)c(F)c1` [Example 69, N-(3-Fluoro-4-methanesulfonylaminobenzyl)-3-(2-methyl-6-trifluoromethylpyridin-3-yl)acrylamide], the IC50 was determined as 3200 nM. The value for `C#Cc1cc(CNC(=O)/C=C/c2ccc(C(F)(F)F)nc2CC(C)CC)cc(F)c1NS(C)(=O)=O` (stereo not shown) [Example 152, N-(3-Ethynyl-5-fluoro-4-methanesulfonylamino-benzyl)-3-[2-(2-methyl-butyl)-6-trifluoromethyl-pyridin-3-yl]-acrylamide] was 43 nM.

For the compound `CCC(C)c1nc(C(F)(F)F)ccc1/C=C/C(=O)N[C@H](C)c1ccc(NS(C)(=O)=O)c(F)c1` (stereo partly drawn) [Example 243, (R)-3-(2-sec-Butyl-6-trifluoromethyl-pyridin-3-yl)-N-[1-(3-fluoro-4-methanesulfonylamino-phenyl)-ethyl]-acrylamide], the IC50 was determined as 41 nM. The value for `CS(=O)(=O)Nc1ccc(CNC(=O)/C=C/c2ccc(Cl)nc2)cc1F` [Examples 16] was over 10000 nM; that for `C#Cc1cc(CNC(=O)/C=C/c2ccc(C(F)(F)F)nc2Oc2cccnc2)cc(F)c1NS(C)(=O)=O` [Example 134, N-(3-Ethynyl-5-fluoro-4-methanesulfonylamino-benzyl)-3-[2-(pyridin-3-yloxy)-6-trifluoromethyl-pyridin-3-yl]-acrylamide] was 2600 nM; that for `CCCCOc1nc(C(F)(F)F)ccc1/C=C/C(=O)NCc1ccc(NS(C)(=O)=O)c(C)c1` [Example 170, 3-(2-Butoxy-6-trifluoromethyl-pyridin-3-yl)-N-(4-methanesulfonylamino-3-methyl-benzyl)-acrylamide] was 340 nM. The value for `C#Cc1cc(CNC(=O)/C=C/c2ccc(C(C)(C)C)nc2)cc(F)c1NS(C)(=O)=O` [Example 3, 3-(6-tert-Butyl-pyridin-3-yl)-N-(3-ethynyl-5-fluoro-4-methanesulfonylamino-benzyl)-acrylamide] was 520 nM. In the case of `C=Cc1cc(CNC(=O)/C=C/c2ccc(C(F)(F)F)nc2NCC)cc(F)c1NS(C)(=O)=O` [Example 250, 3-(2-Ethylamino-6-trifluoromethyl-pyridin-3-yl)-N-(3-fluoro-4-methanesulfonylamino-5-vinyl-benzyl)-acrylamide], the IC50 came out at 32 nM.

For `CS(=O)(=O)Nc1ccc(CNC(=O)/C=C/c2ccc(C(F)(F)F)nc2CCc2ccccc2)cc1` [Example 264, N-(4-Methanesulfonylamino-benzyl)-3-(2-phenethyl-6-trifluoromethyl-pyridin-3-yl)-acrylamide], the half-inhibitory concentration (IC50) was determined as 340 nM. The value for `CCOC(=O)C1CCN(c2nc(C(F)(F)F)ccc2/C=C/C(=O)NCc2cc(F)c(NS(C)(=O)=O)c(C#N)c2)CC1` [Example 111, N-(3-Cyano-5-fluoro-4-methansulfonylamino-benzyl)-3-[2-(4-ethoxycarbonyl-piperid-1-yl)-6-trifluoromethyl-pyridin-3-yl]-acrylamide] was 820 nM; that for `CC(C)(C)c1ccc(OCC(=O)NCc2ccc(NS(C)(=O)=O)c(F)c2)cn1` [Example 29, 2-(6-tert-Butyl-pyridin-3-yloxy)-N-(3-fluoro-4-methanesulfonylamino-benzyl)-acetamide] was over 10000 nM; that for `C=Cc1cc(CNC(=O)/C=C/c2ccc(C(F)(F)F)nc2N2CCOCC2)ccc1NS(C)(=O)=O` [Example 6, N-(4-Methanesulfonylamino-3-vinyl-benzyl)-3-(2-morpholin-4-yl-6-trifluoromethyl-pyridin-3-yl)-acrylamide] was 300 nM. The value for `C#Cc1cc(CNC(=O)/C=C/c2ccc(C(F)(F)F)nc2Oc2ccc(F)cc2)cc(F)c1NS(C)(=O)=O` [Example 82, N-(3-Ethynyl-5-fluoro-4-methanesulfonylamino-benzyl)-3-[2-(4-fluoro-phenoxy)-6-trifluoromethyl-pyridin-3-yl]-acrylamide] was 600 nM. The value for `Cc1cc(CNC(=O)/C=C/c2ccc(C(F)(F)F)nc2-c2cccc(F)c2)ccc1NS(C)(=O)=O` [Example 182, 3-[2-(3-Fluoro-phenyl)-6-trifluoromethyl-pyridin-3-yl]-N-(4-methanesulfonylamino-3-methyl-benzyl)-acrylamide] was 400 nM. Take `CS(=O)(=O)Nc1ccc(CNC(=O)/C=C/c2ccc(C(F)(F)F)nc2N2CCOCC2)cc1F` [Example 5, N-(3-Fluoro-4-methanesulfonylamino-benzyl)-3-(2-morpholin-4-yl-6-trifluoromethyl-pyridin-3-yl)-acrylamide]: the IC50 worked out at 1500 nM. The value for `CS(=O)(=O)Nc1ccc(CNC(=O)/C=C/c2ccc(C(F)(F)F)nc2-c2cccc(F)c2)cc1F` [Example 179, N-(3-Fluoro-4-methanesulfonylamino-benzyl)-3-[2-(3-fluoro-phenyl)-6-trifluoromethyl-pyridin-3-yl]-acrylamide] was 780 nM; that for `C#Cc1cc(CNC(=O)/C=C/c2ccc(C(F)(F)F)nc2CCCOC)cc(F)c1NS(C)(=O)=O` [Example 155, N-(3-Ethynyl-5-fluoro-4-methanesulfonylamino-benzyl)-3-[2-(3-methoxy-propyl)-6-trifluoromethyl-pyridin-3-yl]-acrylamide] was 780 nM. On to `CC(C)(C)c1ccc(OCC(=O)NCc2ccc(NS(C)(=O)=O)c(F)c2)c(Br)n1` [Examples 28], for which the IC50 is 1600 nM. For the compound `CCCCOc1nc(C(F)(F)F)ccc1/C=C/C(=O)N[C@H](C)c1ccc(NS(C)(=O)=O)c(F)c1` [Example 169, (R)-3-(2-Butoxy-6-trifluoromethyl-pyridin-3-yl)-N-[1-(3-fluoro-4-methanesulfonylamino-phenyl)-ethyl]-acrylamide], the IC50 is 170 nM.

Turning to `CC(C)Nc1nc(C(F)(F)F)ccc1/C=C/C(=O)NCc1ccc(NS(C)(=O)=O)c(F)c1` [Example 121, N-(3-Fluoro-4-methanesulfonylamino-benzyl)-3-(2-isopropylamino-6-trifluoromethyl-pyridin-3-yl)-acrylamide], the IC50 amounted to 120 nM. The value for `C[C@@H](NC(=O)/C=C/c1ccc(C(F)(F)F)nc1-c1cccc(F)c1)c1ccc(NS(C)(=O)=O)c(F)c1` [Example 181, (R)—N-[1-(3-Fluoro-4-methanesulfonylamino-phenyl)-ethyl]-3-[2-(3-fluoro-phenyl)-6-trifluoromethyl-pyridin-3-yl]-acrylamide] was 270 nM; that for `COCCNc1nc(C(F)(F)F)ccc1/C=C/C(=O)NCc1cc(F)c(NS(C)(=O)=O)c(C#N)c1` [Example 101, N-(3-Cyano-5-fluoro-4-methanesulfonylamino-benzyl)-3-[2-(2-methoxy-ethylamino)-6-trifluoromethyl-pyridin-3-yl]-acrylamide] was 840 nM; that for `CS(=O)(=O)Nc1ccc(CNC(=O)/C=C/c2ccc(C(F)(F)F)nc2N2CCCCC2)cc1F` [Example 26, N-(3-Fluoro-4-methanesulfonylamino-benzyl)-3-(2-piperid-1-yl-6-trifluoromethyl-pyridinyl-3-yl)-acrylamide] was 1100 nM.

Turning to `CC(C)CCOc1nc(C(F)(F)F)ccc1/C=C/C(=O)NCc1cc(F)c(NS(C)(=O)=O)c(C#N)c1` [Example 118, N-(3-Cyano-5-fluoro-4-methanesulfonylamino-benzyl)-3-[2-(3-methyl-butoxy)-6-trifluoromethyl-pyridin-3-yl]-acrylamide], the IC50 turned out to be 200 nM.

In the case of `C#Cc1cc(CNC(=O)/C=C/c2ccc(C(F)(F)F)nc2N2CCC(C(=O)OCC)CC2)cc(F)c1NS(C)(=O)=O` [Example 110, AT-(3-Ethynyl-5-fluoro-4-methansulfonylamino-benzyl)-3-[2-(4-ethoxycarbonyl-piperid-1-yl)-6-trifluoromethyl-pyridin-3-yl]-acrylamide], the IC50 was found to be 580 nM. As to `CCNc1nc(C(F)(F)F)ccc1/C=C/C(=O)N[C@H](C)c1ccc(NS(C)(=O)=O)c(F)c1` [Example 246, N-[1-(3-Fluoro-4-methanesulfonylamino-phenyl)-ethyl]-3-(2-ethylamino)-6-trifluoromethyl-pyridin-3-yl-acrylamide], the IC50 worked out at 10 nM.

Consider `COCCNc1nc(C(F)(F)F)ccc1/C=C/C(=O)NCc1cc(F)c(NS(C)(=O)=O)c(F)c1` [Example 204, N-(3,5-Difluoro-4-methanesulfonylamino-benzyl)-3-[2-(2-methoxy-ethylamino)-6-trifluoromethyl-pyridin-3-yl]-acrylamide], for which the IC50 turned out to be 170 nM. The value for `CS(=O)(=O)Nc1c(F)cc(CNC(=O)/C=C/c2ccc(C(F)(F)F)nc2-c2cccc(F)c2)cc1C#N` [Example 136, N-(3-Cyano-5-fluoro-4-methanesulfonylamino-benzyl)-3-[2-(3-fluoro-phenyl)-6-trifluoromethyl-pyridin-3-yl]-acrylamide] was 900 nM; that for `CS(=O)(=O)Nc1c(F)cc(CNC(=O)/C=C/c2ccc(C(F)(F)F)nc2CCc2ccccc2)cc1F` [Example 203, N-(3,5-Difluoro-4-methanesulfonylamino-benzyl)-3-(2-phenethyl-6-trifluoromethyl-pyridin-3-yl)-acrylamide] was 120 nM.
